Measurements as given in patent US9200319B2, “Nucleotides and nucleosides and methods for their use in DNA sequencing” (Lasergen, Inc., priority 2008, dated 2015).
“And” between values parts separate entries of the source, which are not always exact repeats. Equal entries are not always repeated.

How the values were obtained:
[1] = UV-cleavage of incorporated nucleotide analogs with 365 nm light; conditions: 365 nm UV light, 50 mM NaN3; time at which half the incorporated analog is cleaved
Description: Cleavage of the terminating substituted 2-nitrobenzyl group when analogs are incorporated into the primer strand with 365 nm UV light allows for the next cycle of incorporation to resume. Without being bound by theory, at least two factors were found typically influence UV-cleavage rates of incorporated nucleotide analogs: a) stereo-chemistry of the α-carbon substitution of the 2-nitrobenzyl group, and b) substitution on the benzyl ring. Incorporation on a matched template is performed as described above using 1 μM concentration to extend the primer strand. Ten identical tubes are used for each incorporation experiment, after which NaN3 is added to a final concentration of 50 mM. Extended primer reactions are exposed to 365 nm light for various time points using the UV deprotector device described by Wu et al. (2007, which is incorporated herein by reference) and analyzed using an AB model 377 DNA sequencer. The quantitative data are plotted linearly as product formation versus exposure time, and the time point at which half the nucleotide analog is cleaved is calculated, as a DT50 value. […] For example, based on these examples, the ds2 analogs show faster cleavage rates (e.g., lower DT50 values) compared with ds1 analogs. Furthermore, substitution of a methoxy group at the 4 position on the benzyl ring further increases the rate of UV-cleavage, albeit for ds2 analogs only (e.g., the DT50 value for 5p098-ds2 is […] versus that of 1.9 sec for 6p087-ds2). Based on the examples summarized in Table 3, substitution at the α-carbon of the 2-nitrobenzyl ring increases UV-cleavage in a stereospecific manner.

[2] = biological target: T1, THERMINATOR™ DNA polymerase (Thermococcus sp., UniProt Q56366, A485L/D141A/E143A); test: biochemical; design: species or system Thermococcus species 9° N-7; conditions: IC50 for incorporation, concentration at which the compound incorporates on half the primer-template complexes; complement template base
T1 construct: purchased New England Biolabs
Description: Natural and modified nucleotides were tested for incorporation efficiency using the “polymerase end point assay” (Wu et al., 2007, which is incorporated herein by reference). This assay examines incorporation efficiency on matched and mismatched template bases. Incorporation efficiency is measured by determining the concentration at which the compound incorporates on half the primer-template complexes (IC50). Titrations of increasing compound concentration were performed to generate curves from which the IC50 can be determined.
(§1) The sequence of the template DNA is selected depending on which compound will be tested. For example, the first interrogation base after the primer in the template sequence is the complement base of the compound when measuring incorporation efficiency, and one of three mismatched bases when measuring mismatch discrimination properties.
(§2) To the annealed reaction, a DNA polymerase (e.g., THERMINATOR™ DNA polymerase, 0.25 units per reaction, New England Biolabs), 1× Thermopol Buffer, and a known concentration of either natural or modified nucleotide are added to each 10 μL reaction and incubated at 75° C. for 10 minutes, cooled on ice, and quenched with 10 μL of stop solution (98% formamide: 10 mM Na2EDTA, pH=8.0, 25 mg/ml Blue Dextran). Stopped reactions are heated to 75° C. for 30 seconds to denature the DNA, and then placed on ice. The extension products are analyzed on a 10% Long Ranger (Lonza) polyacrylamide gel using an ABI model 377 DNA sequencer. Additional details are provided in Example 1, below.
Polymerase Assays. Natural and modified nucleotides were tested for incorporation efficiency using the “polymerase end point assay” (Wu et al., 2007, which is incorporated herein by reference). This assay examines incorporation efficiency on matched and mismatched template bases. Incorporation efficiency is measured by determining the concentration at which the compound incorporates on half the primer-template complexes (IC50). Titrations of increasing compound concentration were performed to generate curves from which the IC50 can be determined.
The assay is performed by first annealing 5 nM of BODIPY-FL labeled primer with 40 nM template DNA in 1× Thermopol Buffer (20 mM Tris-HCl, pH 8.8; 10 mM (NH4)2SO4; 10 mM KCl; 2 mM MgSO4; 0.1% Triton X-100, New England BioLabs).
as §1, with “The temperature cycle to complete primer annealing is 80° C. for 30 seconds, 57° C. for 30 seconds, then cooling to 4° C. The” for “The”
as §2, with “sequencer.” for “sequencer. Additional details are provided in Example 1, below.”

[3] = chemical cleavage by palladium-catalysed hydrogenolysis; conditions: hydrogen, ethanol, room temperature; for time to complete cleavage to thymidine: heterogenous catalyst, palladium on activated carbon (10 wt. %), TLC/HPLC
Description: Chemical Cleavage Using Heterogenous Palladium Catalyst: To a solution of 5-(benzyloxy)methyl-2′-deoxyuridine (29 mg, 0.082 mmol) in absolute ethanol (2 mL) under a nitrogen atmosphere was added 10 mg of palladium on activated carbon (10 wt. %, 10 mg) (CAUTION: flammable solid! Ensure handling in oxygen-free atmosphere). The mixture was flushed with hydrogen gas and stirred at room temperature for 30 minutes while being monitored by TLC every five minutes. The mixture was filtered, concentrated under reduced pressure, and dried under vacuum to yield thymidine (18 mg, 88%) that was identified by comparison to the authentic sample (TLC and ^1H NMR).
Chemical Cleavage Using Homogenous Palladium Catalyst: To a solution of 5-(benzyloxy)methyl-2′-deoxyuridine (3.48 mg, 0.01 mmol) in absolute ethanol (0.1 mL) under a nitrogen atmosphere a solution of sodium tetrachloropalladate (II) (0.6 mg, 0.002 mmol) in absolute ethanol (0.9 mL) was added. The mixture was flushed with hydrogen gas and stirred at room temperature while being monitored by TLC every five minutes. After 20 minutes TLC indicated complete disappearance of starting material. The sole cleavage product was identified to be thymidine by comparison to the authentic sample on TLC.
(§3) Chemical Cleavage Using Heterogenous Palladium Catalyst: To a solution of 5-(2-isopropylbenzyloxy)methyl-2′-deoxyuridine in absolute ethanol (10 mM, 1 mL) under a nitrogen atmosphere was added of palladium on activated carbon (10 wt. %, 2 mg) (CAUTION: flammable solid! Ensure handling in oxygen-free atmosphere). The mixture was flushed with hydrogen gas and stirred at room temperature for five minutes while being monitored by TLC every one minute. After five minutes TLC indicated complete disappearance of starting material. The sole cleavage product was identified to be thymidine by comparison to the authentic sample on TLC.
as §3, with “To” for “To a”, “5-(2-phenylbenzyloxy)methyl-2′-deoxyuridine” for “5-(2-isopropylbenzyloxy)methyl-2′-deoxyuridine”, “added” for “added of”, “1” for “one”
as §3, with “5-(2,6-dimethylbenzyloxy)methyl-2′-deoxyuridine” for “5-(2-isopropylbenzyloxy)methyl-2′-deoxyuridine”, “added” for “added of”, “1” for “one”
To a solution of 5-benzyloxy-2′-deoxyuridine (10 mg) in ethanol (1 mL) was added Pd/C (10%, 10 mg), and the mixture was stirred for five minutes. Hydrogen was introduced to the system via a balloon and the reaction mixture was stirred at room temperature. Aliquots (5 μL) were taken out from the reaction mixture at various time point intervals and were analyzed by thin layer chromatography and HPLC. Complete cleavage to thymidine was observed after ten minutes at room temperature (Scheme 42 and FIG. 4). The intermediate of the cleavage was identified to be 5-hydroxymethyl-dU generated from initial removal of benzyl group, and HOMedU was further reduced to thymidine. […]

T1 sequence (Q56366 whole entry D141A/E143A/A485L): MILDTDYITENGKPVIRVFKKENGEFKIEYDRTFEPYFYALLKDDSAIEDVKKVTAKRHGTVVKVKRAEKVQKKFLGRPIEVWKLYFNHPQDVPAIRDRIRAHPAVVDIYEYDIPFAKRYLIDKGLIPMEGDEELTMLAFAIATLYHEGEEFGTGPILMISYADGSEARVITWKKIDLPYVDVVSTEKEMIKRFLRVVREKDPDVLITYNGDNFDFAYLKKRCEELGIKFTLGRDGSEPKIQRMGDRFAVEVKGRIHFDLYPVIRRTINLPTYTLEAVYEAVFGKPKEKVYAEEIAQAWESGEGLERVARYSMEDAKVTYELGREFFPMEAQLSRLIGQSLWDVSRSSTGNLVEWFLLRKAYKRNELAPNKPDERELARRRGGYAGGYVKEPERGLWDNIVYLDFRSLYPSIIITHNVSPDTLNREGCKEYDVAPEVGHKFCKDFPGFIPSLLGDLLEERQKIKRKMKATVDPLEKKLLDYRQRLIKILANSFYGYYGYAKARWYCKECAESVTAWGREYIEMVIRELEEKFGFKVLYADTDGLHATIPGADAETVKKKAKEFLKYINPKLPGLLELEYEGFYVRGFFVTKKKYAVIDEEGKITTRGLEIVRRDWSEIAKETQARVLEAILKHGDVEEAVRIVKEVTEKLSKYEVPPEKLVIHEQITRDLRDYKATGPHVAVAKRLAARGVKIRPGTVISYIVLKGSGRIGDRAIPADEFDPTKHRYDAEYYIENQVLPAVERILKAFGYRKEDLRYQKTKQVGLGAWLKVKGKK

| SMILES | DT50 [1] | IC50 [2] | time to complete cleavage to thymidine [3] | time to complete disappearance of starting material (cleavage to thymidine) ([3]; homogenous catalyst, sodium tetrachloropalladate (II), TLC) |
| --- | --- | --- | --- | --- |
| COc1ccc(C(OCc2cn([C@H]3C[C@H](O)[C@@H](COP(=O)(O)OP(=O)(O)OP(=O)(O)O)O3)c3ncnc(N)c23)C(C)C)c([N+](=O)[O-])c1 (single isomer, unassigned) [6p087-ds1, 7-[1-(4-methoxy-2-nitrophenyl)-2-methyl-propyloxy]methyl-7-deaza-2′-deoxyadenosine-5′-triphosphate] | 8.8 ± 0.6 s | 0.015 ± 0.001 µM |  |  |
| COc1ccc(C(OCc2cn([C@H]3C[C@H](O)[C@@H](COP(=O)(O)OP(=O)(O)OP(=O)(O)O)O3)c3ncnc(N)c23)C(C)C)c([N+](=O)[O-])c1 (single isomer, unassigned) [6p087-ds2, 7-[1-(4-methoxy-2-nitrophenyl)-2-methyl-propyloxy]methyl-7-deaza-2′-deoxyadenosine-5′-triphosphate] | 1.9 s and 1.9 ± 0.1 s | 0.018 ± 0.003 µM |  |  |
| CC(C)C(OCc1cn([C@H]2C[C@H](O)[C@@H](CO)O2)c(=O)[nH]c1=O)c1ccccc1 (stereo partly shown) [5-(1-phenyl-2-methyl-propyloxy)methyl-2′-deoxyuridine] |  |  | 240 min |  |
| Cc1cccc(C)c1COCc1cn([C@H]2C[C@H](O)[C@@H](CO)O2)c(=O)[nH]c1=O [5-(2,6-dimethylbenzyloxy)methyl-2′-deoxyuridine] |  |  | five |  |
| CC(C)c1ccccc1COCc1cn([C@H]2C[C@H](O)[C@@H](CO)O2)c(=O)[nH]c1=O [5-(2-isopropylbenzyloxy)methyl-2′-deoxyuridine] |  |  | five |  |
| O=c1[nH]c(=O)n([C@H]2C[C@H](O)[C@@H](CO)O2)cc1COCc1ccccc1-c1ccccc1 [5-(2-phenylbenzyloxy)methyl-2′-deoxyuridine] |  |  | five |  |
| O=c1[nH]c(=O)n([C@H]2C[C@H](O)[C@@H](CO)O2)cc1COCc1ccccc1 [5-(benzyloxy)methyl-2′-deoxyuridine] |  |  | ten | 20 min |
